Results: patent publication EP1976513B1 (priority 2006, dated 2007)
Read-outs that look alike come from different tables or passages of the source.

What was measured:
mice [1] = test: Mouse tail suspension test; format: in vivo; conditions: PO, 30-60 minutes before the test, 5 minutes recording
mice [2] = test: Mouse locomotor activity; format: in vivo; conditions: PO
Method: (§1) In order to ensure effects of the compounds on immobility time were not related to a general stimulant effect on baseline motor activity, locomotor activity was assessed using photocell monitored cages (Med-Associates Inc.). Each test chamber was equipped with infrared photocell beams to measure movement of the animals. Horizontal and vertical activity were measured
(§2) Rats or mice were pretreated with vehicle or test compounds and placed back in home cage, following which they will be individually placed in locomotor cages and activity was monitored in 5 minute intervals for up to 60 min.
(§3) Data were analyzed by one way analysis of variance (ANOVA) followed by post-hoc comparisons where appropriate. An effect was considered significant if p < 0.05. Data are represented as the mean and standard error to the mean (s.e.m).

[3] = biological target: T1, DA Transporter (DAT) Sites in Mouse Brain (Mus musculus, UniProt Q61327); test: Ex vivo [3H] WIN 35428 binding after oral dosing; design: species or system C57BL/6 mice; conditions: mice sacrificed 60 minutes after treatment, striatum
T1 construct: Striatum was used to determine occupancy of DA transporter sites; from tissue; host or cells: C57BL/6 mouse striatum homogenate
T1 sequence (Q61327 whole entry): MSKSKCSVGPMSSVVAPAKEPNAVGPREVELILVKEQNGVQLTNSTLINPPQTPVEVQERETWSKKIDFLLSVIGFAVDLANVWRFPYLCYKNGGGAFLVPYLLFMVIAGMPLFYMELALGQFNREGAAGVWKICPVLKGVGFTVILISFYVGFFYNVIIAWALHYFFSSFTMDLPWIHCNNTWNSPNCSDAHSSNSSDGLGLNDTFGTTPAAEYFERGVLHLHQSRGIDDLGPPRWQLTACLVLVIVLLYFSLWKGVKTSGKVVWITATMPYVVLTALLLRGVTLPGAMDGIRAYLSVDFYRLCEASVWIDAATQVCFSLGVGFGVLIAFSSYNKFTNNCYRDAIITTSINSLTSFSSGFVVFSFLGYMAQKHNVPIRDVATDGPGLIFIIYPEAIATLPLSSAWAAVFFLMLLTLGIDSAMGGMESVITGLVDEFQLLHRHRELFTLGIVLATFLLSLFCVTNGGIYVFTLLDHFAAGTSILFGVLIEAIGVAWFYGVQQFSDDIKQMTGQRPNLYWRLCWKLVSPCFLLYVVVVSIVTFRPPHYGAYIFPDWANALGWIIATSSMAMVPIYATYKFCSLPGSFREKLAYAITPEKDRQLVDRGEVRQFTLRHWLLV

Rats [4] = test: Rat forced swim test; format: in vivo; conditions: PO, 24 hours and 30-60 minutes before the 5 minute test
Rats [5] = test: Rat locomotor activity; format: in vivo; conditions: PO
Method: as §1, §2, §3

[6] = biological target: Norepinephrine Transporter (NET) Sites in Mouse Brain (Mus musculus, UniProt O55192); conditions: PO, mice sacrificed 60 minutes after treatment, cortex
Sequence of Norepinephrine Transporter (NET) Sites in Mouse Brain (O55192 whole entry): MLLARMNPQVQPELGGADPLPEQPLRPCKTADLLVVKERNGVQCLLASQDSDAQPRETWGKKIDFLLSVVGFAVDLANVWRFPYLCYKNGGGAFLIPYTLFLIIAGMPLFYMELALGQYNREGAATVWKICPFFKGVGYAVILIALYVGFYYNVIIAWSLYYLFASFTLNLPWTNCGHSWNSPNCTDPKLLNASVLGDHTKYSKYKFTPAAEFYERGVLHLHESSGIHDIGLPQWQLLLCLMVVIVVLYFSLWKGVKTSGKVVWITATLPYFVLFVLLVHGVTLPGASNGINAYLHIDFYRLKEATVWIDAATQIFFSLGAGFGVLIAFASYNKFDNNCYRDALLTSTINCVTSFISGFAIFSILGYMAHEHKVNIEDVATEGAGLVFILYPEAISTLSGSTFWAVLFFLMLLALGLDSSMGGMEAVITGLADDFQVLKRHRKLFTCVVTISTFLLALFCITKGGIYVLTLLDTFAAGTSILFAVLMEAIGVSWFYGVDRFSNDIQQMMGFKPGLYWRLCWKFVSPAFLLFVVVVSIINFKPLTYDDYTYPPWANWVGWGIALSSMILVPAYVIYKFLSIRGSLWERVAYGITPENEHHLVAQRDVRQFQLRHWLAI

| SMILES | Mouse Tail Suspension Mean Immobility Time ± S.E.M. (mice [1]; 3 mg/kg) | Mouse Tail Suspension Mean Immobility Time ± S.E.M. (mice [1]; 10 mg/kg) | Mouse Tail Suspension Mean Immobility Time ± S.E.M. (mice [1]; 30 mg/kg) | Mouse Locomotor Activity Total Distance Traveled ± S.E.M. (mice [2]; 3 mg/kg) | Mouse Locomotor Activity Total Distance Traveled ± S.E.M. (mice [2]; 10 mg/kg) | Mouse Locomotor Activity Total Distance Traveled ± S.E.M. (mice [2]; 30 mg/kg) | Rat Forced Swim (Means ± S.E.M.) Climbing (Rats [4]; 3 mg/kg) | Rat Forced Swim (Means ± S.E.M.) Immobility (Rats [4]; 3 mg/kg) | Rat Forced Swim (Means ± S.E.M.) Swimming (Rats [4]; 3 mg/kg) | Rat Forced Swim (Means ± S.E.M.) Climbing (Rats [4]; 10 mg/kg) | Rat Forced Swim (Means ± S.E.M.) Immobility (Rats [4]; 10 mg/kg) | Rat Forced Swim (Means ± S.E.M.) Swimming (Rats [4]; 10 mg/kg) | Rat Forced Swim (Means ± S.E.M.) Climbing (Rats [4]; 30 mg/kg) | Rat Forced Swim (Means ± S.E.M.) Immobility (Rats [4]; 30 mg/kg) | Rat Forced Swim (Means ± S.E.M.) Swimming (Rats [4]; 30 mg/kg) | Rat Locomotor Activity Total Distance Traveled ± S.E.M. (Rats [5]; 3 mg/kg) | Rat Locomotor Activity Total Distance Traveled ± S.E.M. (Rats [5]; 10 mg/kg) | Rat Locomotor Activity Total Distance Traveled ± S.E.M. (Rats [5]; 30 mg/kg) | other results |
| --- | --- | --- | --- | --- | --- | --- | --- | --- | --- | --- | --- | --- | --- | --- | --- | --- | --- | --- | --- |
| CCC(N)C1(c2ccc(Cl)c(Cl)c2)CCCCC1 (single isomer, unassigned) [17 E1, 1-(1-(3,4-dichlorophenyl)cyclohexyl)propan-1-amine] | 184.7 ± 9.0 | 182.6 ± 4.1 | 150.9 ± 7.8 | 649.3 ± 78.4 | 478.3 ± 88.5 | 428.3 ± 120.6 | – | – | – | – | – | – | – | – | – | – | – | – | – |
| CNC(C)C1(c2ccc(Cl)c(Cl)c2)CCCCC1 (single isomer, unassigned) [44 E1, 1-(1-(3,4-dichlorophenyl)cyclohexyl)-N-methylethanamine] | 188.9 ± 7.3 | 174.5 ± 8.1 | 120.4 ± 9.0 | 576.5 ± 66.9 | 721.1 ± 36.5 | 402.3 ± 71.0 | – | – | – | – | – | – | – | – | – | – | – | – | – |
| CNC(C)C1(c2ccc(Cl)c(Cl)c2)CCCCC1.Cl (single isomer, unassigned) [48 E1, 1-(1-(3,4-dichlorophenyl)cyclohexyl)-N-methylethanamine hydrochloride] | 189.8 ± 7.2 | 174.1 ± 5.8 | 134.5 ± 9.6 | 622.5 ± 101.6 | 620.0 ± 79.4 | 468.6 ± 114.2 | 7.1 ± 0.6 | 49.6 ± 1.5 | 3.7 ± 1.0 | 17.9 ± 2.5 | 35.6 ± 3.5 | 6.5 ± 1.6 | 20.6 ± 2.9 | 26.9 ± 4.4 | 9.7 ± 1.7 | 1869.9 ± 188.4 | 1825.3 ± 109.3 | 1840.6 ± 56.6 | Mean Specific Binding (dpm) ± S.E.M., DAT ([3]; 1 mg/kg): 20656 ± 1531 dpm; Mean Specific Binding (dpm) ± S.E.M., DAT ([3]; 3 mg/kg): 18039 ± 1265 dpm; Mean Specific Binding (dpm) ± S.E.M., DAT ([3]; 10 mg/kg): 9792 ± 977 dpm; Mean Specific Binding (dpm) ± S.E.M., DAT ([3]; 30 mg/kg): 3173 ± 541 dpm; Mean Specific Binding (dpm) ± S.E.M., NET ([6]; 1 mg/kg): 2111 ± 119 dpm; Mean Specific Binding (dpm) ± S.E.M., NET ([6]; 3 mg/kg): 1911 ± 144 dpm; Mean Specific Binding (dpm) ± S.E.M., NET ([6]; 10 mg/kg): 954 ± 115 dpm; Mean Specific Binding (dpm) ± S.E.M., NET ([6]; 30 mg/kg): 346 ± 55 dpm |
| CN(C)CC1(c2ccc(Cl)c(Cl)c2)CCCCC1O (single isomer, unassigned) [153 E2, trans-2-(3,4-dichlorophenyl)-2-((dimethylamino)methyl)cyclohexanol] | – | – | – | 625.5 ± 88.8 | 519.5 ± 88.4 | 573.7 ± 63.6 | 8.8 ± 1.5 | 49.9 ± 1.7 | 1.9 ± 0.8 | 11.7 ± 1.8 | 44.0 ± 2.1 | 4.3 ± 1.1 | 22.2 ± 5.2 | 31.3 ± 6.7 | 4.6 ± 1.3 | 1577.8 ± 80.1 | 1994.2 ± 263.9 | 2033.7 ± 215.4 | – |
